Publication PMC6915745, “TRIB3 supports breast cancer stemness by suppressing FOXO1 degradation and enhancing SOX2 transcription” (Nature Communications, 2019)
Peptide text beside a SMILES is read from it. * marks the point of attachment. Cbz = O=C(OCc1ccccc1)*

Legend:
[1] = system: FOXO1; experiment: FOXO1 immunoblot in control or TRIB3-silenced MCF7 cells with BAF or MG132; format: cell-based, human; conditions: BAF 200 nM or MG132 10 μM, 8 h, in words
Experimental: (§1) Fig. 5 TRIB3 stabilizes the FOXO1 protein by suppressing its ubiquitination. a, b HMLE cells transfected with a TRIB3-expressing vector vs. a control vector (a) or MCF7 cells transfected with TRIB3-shRNA vs. CTRL-shRNA (b) were incubated with 20 μM cycloheximide (CHX) for the indicated times. c, d The effect of TRIB3 depletion on FOXO1 degradation in vitro. MCF7 cells (c) were incubated with CHX (20 μM), CHX plus bafilomycin (BAF, 200 nM), or MG132 (10 μM) for the indicated times. Control or TRIB3-silenced MCF7 cells (d, top) and MDA-MB-231 cells (d, bottom) were incubated with DMSO, 200 nM BAF, or 10 μM MG132 for 8 h. The indicated proteins were detected by immunoblotting. e, f FOXO1 activity in HMLE cells (e) transfected with a control vector or a TRIB3-expressing vector, or in MCF7 cells (f) transfected with CTRL-shRNA or TRIB3-shRNA and either a control vector or a FOXO1-expressing vector. g, h The effect of TRIB3 on FOXO1 ubiquitination. HMLE (g) or MCF7 cells (h) were transfected with the indicated plasmid. His-ubiquitin-conjugated proteins were pulled down from cell lysates. Total protein lysates and Ni-NTA-agarose eluates were immunoblotted for FLAG, His, and TRIB3. […]
(§2) Cycloheximide (CHX; Sigma Aldrich, R750107) was used as a protein synthesis inhibitor to assess the stability of the existing proteins. […] The protein concentrations were determined by BCA Protein Assay Kits (Pierce). […]

[2] = system: FOXO1; experiment: FOXO1 protein stability (cycloheximide chase), MCF7 cells; format: cell-based, human; conditions: for degradation of FOXO1: CHX 20 μM plus BAF 200 nM or MG132 10 μM, in words; for FOXO1 half-life: CHX, authors' reply to reviewers, control about 3 hr
Experimental: Fig. 5 TRIB3 stabilizes the FOXO1 protein by suppressing its ubiquitination. a, b HMLE cells transfected with a TRIB3-expressing vector vs. a control vector (a) or MCF7 cells transfected with TRIB3-shRNA vs. CTRL-shRNA (b) were incubated with 20 μM cycloheximide (CHX) for the indicated times. c, d The effect of TRIB3 depletion on FOXO1 degradation in vitro. MCF7 cells (c) were incubated with CHX (20 μM), CHX plus bafilomycin (BAF, 200 nM), or MG132 (10 μM) for the indicated times. Control or TRIB3-silenced MCF7 cells (d, top) and MDA-MB-231 cells (d, bottom) were incubated with DMSO, 200 nM BAF, or 10 μM MG132 for 8 h. The indicated proteins were detected by immunoblotting. e, f FOXO1 activity in HMLE cells (e) transfected with a control vector or a TRIB3-expressing vector, or in MCF7 cells (f) transfected with CTRL-shRNA or TRIB3-shRNA and either a control vector or a FOXO1-expressing vector. g, h The effect of TRIB3 on FOXO1 ubiquitination. HMLE (g) or MCF7 cells (h) were transfected with the indicated plasmid. His-ubiquitin-conjugated proteins were pulled down from cell lysates. Total protein lysates and Ni-NTA-agarose eluates were immunoblotted for FLAG, His, and TRIB3. Source data are provided as a Source Data file. […] I left them out because their labels are genetic constructs, not substances; their digits are also small
(§3) Cycloheximide (CHX; Sigma Aldrich, R750107) was used as a protein synthesis inhibitor to assess the stability of the existing proteins. To assess protein stability, cells were treated with 20 μM CHX and the proteasome inhibitor MG132 (Sigma Aldrich, R750107) at 10 μM or the autophagy inhibitor BAF (Sigma Aldrich, B1793) at 200 nM for the indicated times. Protein expression was assessed via immunoblot analysis with cell lysates (20–60 μg) prepared in RIPA lysis buffer containing protease inhibitors (Roche) using anti-SOX2 (3529), anti-NANOG (4903), anti-OCT4 (2750), anti-KLF4 (4038), anti-c-Myc (13987), anti-FOXO1 (2880), anti-p-FOXO1 (9461), anti-AKT (4685), anti-p-AKT (4060), anti-β-ACTIN (4970), anti-Ubiquitin (3936), or anti-LaminA/C (4777) antibodies from CST; anti-TRIB3 antibody (ab75846) from Abcam; and anti-Trib3 antibody (PA5-15480) from Thermo Fisher Scientific[59]. All antibodies were used at 1:1000 dilution, with the exception of anti-β-Actin antibodies, which were used at 1:2000 dilution. The protein concentrations were determined by BCA Protein Assay Kits (Pierce). Proteins were separated by SDS-polyacrylamide gel electrophoresis (PAGE) and transferred to polyvinylidene difluoride membrane.

[3] = system: FOXO1; experiment: FOXO1 immunoblot in control or TRIB3-silenced MDA-MB-231 cells with BAF or MG132; format: cell-based; conditions: BAF 200 nM or MG132 10 μM, 8 h, in words
Experimental: as §1, §2

[4] = system: MCF7 cells; experiment: TRIB3/AKT/FOXO1/SOX2 axis after IL-6, CoCl2 or high glucose, MCF7 cells (WB); format: cell-based, human
[5] = system: TRIB3-silenced MCF7 cells; experiment: Immunoblot of AKT1/FOXO1/SOX2, TRIB3-silenced MCF7 cells with AKT1 inhibitor MK2206; format: cell-based, human; conditions: Fig.6e, MCF7, TRIB3-shRNA, v.s CTRL-shRNA+DMSO
Excerpt: (§4) Fig. 6 TRIB3 abrogates the AKT-FOXO1 interaction. a Supervised clustering of MCF7 cells transfected with CTRL-shRNA or TRIB3-shRNA using the log2-transformed values for genes in the FOXO1 upstream pathway, including AMPK, ERK, PI3K, p38, and JNK clustered genes expressed in all samples. Each column represents a separate case. Z-scores from IPA depicting the subnetwork gene expression differences between CTRL-shRNA and TRIB3-shRNA cases. The Z-score heat map depicts the five FOXO1 upstream subnetworks. Each row represents the data for the subnetwork indicated in the right margin. b, c TRIB3 inhibited the activity of AKT1 in BCCs. The indicated stable expression cell extracts were prepared and the levels of the indicated proteins were detected by immunoblotting. d, e The effects of the AKT1 agonist or antagonist for TRIB3-FOXO1-SOX2 axis in BCCs. The indicated cells were treated with the AKT1 agonist SC79 or the antagonist MK2206 for 24 h. […] HMLE cell extracts were IP with an anti-AKT1 Ab and blotted with an anti-TRIB3 or anti-FOXO1 Ab in the presence of the indicated concentration of the TRIB3-GST protein. Data are shown as the mean ± SEM; P > 0.05 was considered not significant (NS); *P < 0.05, **P < 0.01, and ***P < 0.001 compared with the vector or CTRL-shRNA group. Source data are provided as a Source Data file.
as §3

[6] = system: HMLE cells overexpressing TRIB3; experiment: Immunoblot of AKT1/FOXO1/SOX2, HMLE cells with AKT1 agonist SC79; format: cell-based, human; conditions: for Relative fold change AKT1 / Relative fold change FOXO1 / Relative fold change SOX2 / Relative fold change TRIB3 / Relative fold change p-AKT(473S) / Relative fold change p-FOXO1(256S): Fig.6d, HMLE, TRIB3-shRNA, v.s CTRL-shRNA+DMSO
Excerpt: as §4, §3

[7] = HMLE cells overexpressing TRIB3, 24 h

CO/C1=C\C(C)=C\[C@@H](C)[C@@H](O)[C@@H](C)C/C(C)=C/C=C/[C@H](OC)[C@@H]([C@@H](C)[C@@H](O)[C@H](C)[C@@]2(O)C[C@@H](O)[C@H](C)[C@@H](C(C)C)O2)OC1=O [BAF, bafilomycin]
inhibition of FOXO1 reduction caused by TRIB3 silencing [1]: not by BAF | degradation of FOXO1 [2]: not by the autophagy inhibitor bafilomycin | inhibition of FOXO1 reduction caused by TRIB3 silencing [3]: not by BAF

[Cl-].[Cl-].[Co+2] [CoCl2, reference compound]
expressions of FOXO1 and SOX2 [4]: enhance

O=c1cc(N2CCOCC2)oc2c(-c3ccccc3)cccc12 [LY294002]
FOXO1 half-life [2]: 4.4 h

CC(C)C[C@@H](C=O)NC(=O)[C@H](CC(C)C)NC(=O)[C@H](CC(C)C)NC(=O)OCc1ccccc1 [MG132] (Cbz-Leu-Leu-Leu-aldehyde)
inhibition of FOXO1 reduction caused by TRIB3 silencing [1]: inhibited by MG132 | degradation of FOXO1 [2]: inhibited by the proteasome inhibitor MG132 | FOXO1 half-life [2]: 6 h | inhibition of FOXO1 reduction caused by TRIB3 silencing [3]: inhibited by MG132

NC1(c2ccc(-c3nc4ccn5c(=O)[nH]nc5c4cc3-c3ccccc3)cc2)CCC1 [MK-2206]
Relative fold change AKT1 ([5]; replicate 1): 0.657 | Relative fold change FOXO1 ([5]; replicate 1): 1.341 | Relative fold change SOX2 ([5]; replicate 1): 0.604 | Relative fold change TRIB3 ([5]; replicate 1): 0.180 | Relative fold change p-AKT(473S) ([5]; replicate 1): 0.243 | Relative fold change p-FOXO1(256S) ([5]; replicate 1): 0.564 | Relative fold change AKT1 ([5]; replicate 2): 0.717 | Relative fold change FOXO1 ([5]; replicate 2): 1.441 | Relative fold change SOX2 ([5]; replicate 2): 0.664 | Relative fold change TRIB3 ([5]; replicate 2): 0.200 | Relative fold change p-AKT(473S) ([5]; replicate 2): 0.263 | Relative fold change p-FOXO1(256S) ([5]; replicate 2): 0.614 | Relative fold change AKT1 ([5]; replicate 3): 0.597 | Relative fold change FOXO1 ([5]; replicate 3): 1.241 | Relative fold change SOX2 ([5]; replicate 3): 0.544 | Relative fold change TRIB3 ([5]; replicate 3): 0.160 | Relative fold change p-AKT(473S) ([5]; replicate 3): 0.223 | Relative fold change p-FOXO1(256S) ([5]; replicate 3): 0.514

CCOC(=O)C1=C(N)Oc2ccc(Cl)cc2C1C(C#N)C(=O)OCC (centres unmarked) [SC79]
Relative fold change AKT1 ([6]; replicate 1): 1.9500 | Relative fold change FOXO1 ([6]; replicate 1): 0.4880 | Relative fold change SOX2 ([6]; replicate 1): 5.8119 | Relative fold change TRIB3 ([6]; replicate 1): 6.9492 | Relative fold change p-AKT(473S) ([6]; replicate 1): 1.6733 | Relative fold change p-FOXO1(256S) ([6]; replicate 1): 1.9882 | Relative fold change AKT1 ([6]; replicate 2): 2.1500 | Relative fold change FOXO1 ([6]; replicate 2): 0.5280 | Relative fold change SOX2 ([6]; replicate 2): 6.4119 | Relative fold change TRIB3 ([6]; replicate 2): 7.5492 | Relative fold change p-AKT(473S) ([6]; replicate 2): 1.7733 | Relative fold change p-FOXO1(256S) ([6]; replicate 2): 2.1782 | Relative fold change AKT1 ([6]; replicate 3): 1.7500 | Relative fold change FOXO1 ([6]; replicate 3): 0.4480 | Relative fold change SOX2 ([6]; replicate 3): 5.2119 | Relative fold change TRIB3 ([6]; replicate 3): 6.3492 | Relative fold change p-AKT(473S) ([6]; replicate 3): 1.5733 | Relative fold change p-FOXO1(256S) ([6]; replicate 3): 1.7982 | FOXO1 and SOX2 expression [6, 7]: inhibited FOXO1 and SOX2 expression | activity of AKT1 S473 and FOXO1 S256 [6, 7]: rescued the activity of AKT1^S473 and FOXO1^S256
